Experimental data: patent US20240287138A1, “CYCLIC PEPTIDES FOR INHIBITING TNF RECEPTOR 1 ACTIVITY” (Merck Sharp & Dohme LLC, priority 2023, published 2024)
Numbered stars: 1 amine (or outer) side, 2 acyl side, 3 side chain; on linkers, the order of the positions; unused ones are H or OH. Bridge positions count the residues as written; N and C are the ends. Square brackets hold non-standard residues; d marks the D form. Peptide text beside a SMILES is read from it. * marks the point of attachment. Trp(βS-Me,7-OMe) = COc1cccc2c([C@H](C)[C@H](N)C(=O)O)c[nH]c12; cBu(1-CO,cis-3-CH2NH) = O=C([C@H]1C[C@@H](CN[*:1])C1)[*:2]; Trp(4-Cl) = N[C@@H](Cc1c[nH]c2cccc(Cl)c12)C(=O)O; Trp(7-Cl) = N[C@@H](Cc1c[nH]c2c(Cl)cccc12)C(=O)O; Phe(4-CONH2) = NC(=O)c1ccc(C[C@H](N)C(=O)O)cc1; Phe(4-COOH) = N[C@@H](Cc1ccc(C(=O)O)cc1)C(=O)O; Trp(7-F) = N[C@@H](Cc1c[nH]c2c(F)cccc12)C(=O)O; Trp(7-aza) = N[C@@H](Cc1c[nH]c2ncccc12)C(=O)O; X10 = O=C([C@H](Cc1ccnc2ccccc12)N[*:1])[*:2]; Phe(4-CH2NH2) = NCc1ccc(C[C@H](N)C(=O)O)cc1; X2 = C[C@@H]1CC[C@@H](C(=O)[*:2])N([*:1])C1; Pip(5R-OH) = O=C(O)[C@@H]1CC[C@@H](O)CN1; X13 = O=C([C@H]1CC[C@@H](N[*:1])C1)[*:2]; αMeW = C[C@](N)(Cc1c[nH]c2ccccc12)C(=O)O; X1 = O=C([C@@H]1CC[C@H](N[*:1])C1)[*:2]; dPro(4,4-F2) = O=C(O)[C@H]1CC(F)(F)CN1; X6 = O=C([C@@H](N[*:1])C1(O)CC1)[*:2]; d(cisHyp) = O=C(O)[C@H]1C[C@@H](O)CN1; Pip(4-aza) = O=C(O)[C@@H]1CNCCN1; hPhe = N[C@@H](CCc1ccccc1)C(=O)O; 4Pal = N[C@@H](Cc1ccncc1)C(=O)O; NMeE = CN[C@@H](CCC(=O)O)C(=O)O; αMeS = C[C@](N)(CO)C(=O)O; Carboxymethyl = O=C(O)C*; NMeA = CN[C@@H](C)C(=O)O; Nle = CCCC[C@H](N)C(=O)O; Sar = CNCC(=O)O

Key:
[1] = biological target: T1, human soluble TNFR1 (sTNFR1) (Homo sapiens, UniProt P19438); assay: Human sTNFR1-peptide displacement assay (LanthaScreen Eu TR-FRET binding assay)
T1 construct: made in house; host or cells: Sf21 (baculovirus)
T1 sequence (P19438 with tags, fused parts or gaps): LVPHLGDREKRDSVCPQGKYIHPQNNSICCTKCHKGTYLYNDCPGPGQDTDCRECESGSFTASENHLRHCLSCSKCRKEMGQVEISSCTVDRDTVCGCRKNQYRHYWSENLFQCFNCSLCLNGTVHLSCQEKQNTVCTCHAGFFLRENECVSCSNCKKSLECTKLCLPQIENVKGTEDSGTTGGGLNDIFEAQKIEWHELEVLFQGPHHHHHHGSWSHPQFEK
How it was run: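 Readout is the 665/615 nm TR-FRET ratio (Eu anti-His donor, streptavidin-Alexa647 acceptor), normalized to DMSO and saturating displacer, fit by Morrison-based five-parameter logistic for Kd^app. His-tagged sTNFR1 (1-211) prebound to 100 nM biotinylated peptide SEQ ID NO.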

human TNFR2 ECD protein = biological target: T2, human TNFR2 ECD protein (Homo sapiens, UniProt P20333); assay: SPR off-target binding (selectivity) to human TNFR2 ECD
T2 construct: HRV 3C protease cleavage site (C); 6His (C, cleaved yes); made in house; host or cells: Sf21 insect cells (baculovirus), secreted
T2 sequence (P20333 23-257): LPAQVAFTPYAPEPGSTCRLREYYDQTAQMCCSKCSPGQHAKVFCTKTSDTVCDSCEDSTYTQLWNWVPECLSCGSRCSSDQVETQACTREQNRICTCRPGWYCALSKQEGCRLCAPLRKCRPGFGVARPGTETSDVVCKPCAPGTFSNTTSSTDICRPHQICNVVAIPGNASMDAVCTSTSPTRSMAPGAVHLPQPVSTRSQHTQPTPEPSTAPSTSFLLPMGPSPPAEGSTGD
How it was run: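 Biotinylated avi-tagged human TNFR1 or TNFR2 ECD, expressed in Sf21 insect cells, captured on streptavidin SPR chip; peptide analytes run in 10 mM HEPES pH 7.4, 150 mM NaCl, 3 mM EDTA, 0.05% P20, 2% DMSO. kon and koff measured, affinity KA calculated.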

SMILES | IC50 [1] [nM] | Kd (human TNFR2 ECD protein) [nM] | Kd [1] [nM]
C[C@H]1C(=O)N[C@@H](CC(N)=O)C(=O)N[C@@H](Cc2ccncc2)C(=O)N[C@@H](Cc2c[nH]c3ccccc23)C(=O)N[C@@](C)(CO)C(=O)N[C@@H](Cc2ccc(C(=O)O)cc2)C(=O)N[C@@H](CCCNC(=N)N)C(=O)N(C)CC(=O)N[C@@H](Cc2c[nH]c3ccccc23)C(=O)N[C@H](C(N)=O)CSCC(=O)N[C@@H](CCc2ccccc2)C(=O)N[C@@H](Cc2ccc(O)cc2)C(=O)N[C@@H](CO)C(=O)N[C@@H](Cc2c[nH]c3ccccc23)C(=O)N1C [SEQ ID NO. 260] ({CH2CO}-[hPhe]YSW[NMeA]N[4Pal]W[αMeS][Phe(4-COOH)]R[Sar]WC-NH2; thioether N-14) | 10.2 | > 1000 | 
CCCC[C@@H]1NC(=O)CSC[C@@H](C(N)=O)NC(=O)[C@H]([C@@H](C)c2c[nH]c3c(OC)cccc23)NC(=O)CN(C)C(=O)[C@H](Cc2ccc(O)cc2)NC(=O)[C@H](Cc2ccc(C(=O)O)cc2)NC(=O)[C@](C)(CO)NC(=O)[C@H](Cc2c[nH]c3c(Cl)cccc23)NC(=O)[C@H](Cc2ccncc2)NC(=O)[C@H](CC(N)=O)NC(=O)[C@H]2C[C@@H](O)CN2C(=O)[C@H](Cc2c[nH]c3ncccc23)NC(=O)[C@@H]2CNCCN2C(=O)[C@H](Cc2ccncc2)NC1=O [SEQ ID NO. 261] ({CH2CO}-[Nle][4Pal][Pip(4-aza)][Trp(7-aza)][d(cisHyp)]N[4Pal][Trp(7-Cl)][αMeS][Phe(4-COOH)]Y[Sar][Trp(βS-Me,7-OMe)]C-NH2; thioether N-14) | 0.4 | > 1000 | 0.3
CCCC[C@@H]1NC(=O)[C@@H]2CC[C@@H](C2)NC(=O)[C@H]([C@@H](C)c2c[nH]c3c(OC)cccc23)NC(=O)CN(C)C(=O)[C@H](Cc2ccc(O)cc2)NC(=O)[C@H](Cc2ccc(C(=O)O)cc2)NC(=O)[C@](C)(CO)NC(=O)[C@H](Cc2c[nH]c3c(Cl)cccc23)NC(=O)[C@H](Cc2ccncc2)NC(=O)[C@H](CC(N)=O)NC(=O)[C@H](CCC(=O)O)N(C)C(=O)[C@H](Cc2c[nH]c3c(Cl)cccc23)NC(=O)[C@@H]2CNCCN2C(=O)[C@H](Cc2ccncc2)NC1=O [SEQ ID NO. 262] (cyclo([4Pal][Trp(7-Cl)][αMeS][Phe(4-COOH)]Y[Sar][Trp(βS-Me,7-OMe)][X1][Nle][4Pal][Pip(4-aza)][Trp(7-Cl)][NMeE]N)) |  | > 1000 | 0.39
C[C@H]1C(=O)N[C@@H](CC(N)=O)C(=O)N[C@@H](Cc2ccncc2)C(=O)N[C@@H](Cc2c[nH]c3ccccc23)C(=O)N[C@@](C)(CO)C(=O)N[C@@H](Cc2ccc(C(=O)O)cc2)C(=O)N[C@@H](Cc2ccc(O)cc2)C(=O)N(C)CC(=O)N[C@@H](Cc2c[nH]c3ccccc23)C(=O)N[C@H](C(N)=O)CSCC(=O)N[C@@H](CCc2ccccc2)C(=O)N[C@@H](Cc2ccc(O)cc2)C(=O)N[C@@H](CO)C(=O)N[C@@H](Cc2c[nH]c3c(F)cccc23)C(=O)N1C [SEQ ID NO. 263] ({CH2CO}-[hPhe]YS[Trp(7-F)][NMeA]N[4Pal]W[αMeS][Phe(4-COOH)]Y[Sar]WC-NH2; thioether N-14) | 2.88 | > 1000 | 
CCCC[C@@H]1NC(=O)[C@@H]2CC[C@@H](C2)NC(=O)[C@H]([C@@H](C)c2c[nH]c3c(OC)cccc23)NC(=O)CN(C)C(=O)[C@H](Cc2ccc(O)cc2)NC(=O)[C@H](Cc2ccc(C(=O)O)cc2)NC(=O)[C@](C)(CO)NC(=O)[C@H](Cc2c[nH]c3c(Cl)cccc23)NC(=O)[C@H](Cc2ccncc2)NC(=O)[C@H](CC(N)=O)NC(=O)[C@H]2CC(F)(F)CN2C(=O)[C@H](Cc2c[nH]c3ccccc23)NC(=O)[C@@H]2CNCCN2C(=O)[C@H](Cc2ccncc2)NC1=O [SEQ ID NO. 266] (cyclo([4Pal][Trp(7-Cl)][αMeS][Phe(4-COOH)]Y[Sar][Trp(βS-Me,7-OMe)][X1][Nle][4Pal][Pip(4-aza)]W[dPro(4,4-F2)]N)) |  | > 1000 | 0.45
CCCC[C@@H]1NC(=O)[C@H]2CC[C@H](C2)NC(=O)[C@H]([C@@H](C)c2c[nH]c3c(OC)cccc23)NC(=O)CN(C)C(=O)[C@H](Cc2ccc(O)cc2)NC(=O)[C@H](Cc2ccc(C(N)=O)cc2)NC(=O)[C@](C)(CO)NC(=O)[C@H](Cc2c[nH]c3c(Cl)cccc23)NC(=O)[C@H](Cc2ccc(C(=O)O)cc2)NC(=O)[C@H](CC(N)=O)NC(=O)[C@H](CCC(=O)O)N(C)C(=O)[C@H](Cc2c[nH]c3ccccc23)NC(=O)[C@@H]2CC[C@@H](O)CN2C(=O)[C@H](Cc2ccncc2)NC1=O [SEQ ID NO. 267] (cyclo([4Pal][Pip(5R-OH)]W[NMeE]N[Phe(4-COOH)][Trp(7-Cl)][αMeS][Phe(4-CONH2)]Y[Sar][Trp(βS-Me,7-OMe)][X13][Nle])) |  | > 1000 | 0.29
CCCC[C@@H]1NC(=O)[C@H]2C[C@@H](CNC(=O)[C@H]([C@@H](C)c3c[nH]c4c(OC)cccc34)NC(=O)CN(C)C(=O)[C@H](Cc3ccc(O)cc3)NC(=O)[C@H](Cc3ccc(C(=O)O)cc3)NC(=O)[C@](C)(CO)NC(=O)[C@H](Cc3c[nH]c4c(Cl)cccc34)NC(=O)[C@H](Cc3ccncc3)NC(=O)[C@H](CC(N)=O)NC(=O)[C@H](CCC(=O)O)N(C)C(=O)[C@H](Cc3c[nH]c4ccccc34)NC(=O)[C@@H]3CNCCN3C(=O)[C@H](Cc3ccncc3)NC1=O)C2 [SEQ ID NO. 268] (cyclo([4Pal][Trp(7-Cl)][αMeS][Phe(4-COOH)]Y[Sar][Trp(βS-Me,7-OMe)][cBu(1-CO,cis-3-CH2NH)][Nle][4Pal][Pip(4-aza)]W[NMeE]N)) | 0.77 | > 1000 | 0.45
CCCC[C@@H]1NC(=O)CSC[C@@H](C(N)=O)NC(=O)[C@H]([C@@H](C)c2c[nH]c3c(OC)cccc23)NC(=O)CN(C)C(=O)[C@H](Cc2ccc(O)cc2)NC(=O)[C@H](Cc2ccc(C(=O)O)cc2)NC(=O)[C@](C)(CO)NC(=O)[C@H](Cc2c[nH]c3c(Cl)cccc23)NC(=O)[C@H](Cc2ccncc2)NC(=O)[C@H](CC(N)=O)NC(=O)[C@H](CCC(=O)O)N(C)C(=O)[C@H](Cc2c[nH]c3ccccc23)NC(=O)[C@@H]2CC[C@@H](C)CN2C(=O)[C@H](Cc2ccncc2)NC1=O [SEQ ID NO. 272] ({CH2CO}-[Nle][4Pal][X2]W[NMeE]N[4Pal][Trp(7-Cl)][αMeS][Phe(4-COOH)]Y[Sar][Trp(βS-Me,7-OMe)]C-NH2; thioether N-14) | 0.3 | > 1000 | 0.21
C[C@@]1(CO)NC(=O)[C@H](Cc2c[nH]c3ncccc23)NC(=O)[C@H](Cc2ccncc2)NC(=O)[C@H](CC(N)=O)NC(=O)[C@H]2CCCN2C(=O)[C@H](Cc2ccnc3ccccc23)NC(=O)[C@H](CO)NC(=O)[C@H](Cc2ccncc2)NC(=O)[C@H](CCC(N)=O)NC(=O)CSC[C@@H](C(N)=O)NC(=O)[C@H](Cc2c[nH]c3cccc(Cl)c23)NC(=O)[C@@H]2CCCN2C(=O)[C@H](Cc2ccc(O)cc2)NC(=O)[C@H](Cc2ccc(C(=O)O)cc2)NC1=O [SEQ ID NO. 278] ({CH2CO}-Q[4Pal]S[X10][dP]N[4Pal][Trp(7-aza)][αMeS][Phe(4-COOH)]YP[Trp(4-Cl)]C-NH2; thioether N-14) | 8.69 | > 1000 | 
CCCC[C@@H]1NC(=O)CSC[C@@H](C(N)=O)NC(=O)[C@](C)(Cc2c[nH]c3ccccc23)NC(=O)CN(C)C(=O)[C@H](Cc2ccc(O)cc2)NC(=O)[C@H](Cc2ccc(C(=O)O)cc2)NC(=O)[C@](C)(CO)NC(=O)[C@H](Cc2c[nH]c3c(Cl)cccc23)NC(=O)[C@H](Cc2ccncc2)NC(=O)[C@H](CC(N)=O)NC(=O)[C@H](CCC(=O)O)N(C)C(=O)[C@H](Cc2c[nH]c3ncccc23)NC(=O)[C@H](C2(O)CC2)NC(=O)[C@H](Cc2ccncc2)NC1=O [SEQ ID NO. 281] ({CH2CO}-[Nle][4Pal][X6][Trp(7-aza)][NMeE]N[4Pal][Trp(7-Cl)][αMeS][Phe(4-COOH)]Y[Sar][αMeW]C-NH2; thioether N-14) | 1.4 | > 1000 | 
CCCC[C@@H]1NC(=O)CSC[C@@H](C(N)=O)NC(=O)[C@](C)(Cc2c[nH]c3ccccc23)NC(=O)CN(C)C(=O)[C@H](Cc2ccc(O)cc2)NC(=O)[C@H](Cc2ccc(OCC(=O)O)cc2)NC(=O)[C@](C)(CO)NC(=O)[C@H](Cc2c[nH]c3c(Cl)cccc23)NC(=O)[C@H](Cc2ccncc2)NC(=O)[C@H](CC(N)=O)NC(=O)[C@H](CCC(=O)O)N(C)C(=O)[C@H](Cc2c[nH]c3ncccc23)NC(=O)[C@H](CO)NC(=O)[C@H](Cc2ccc(CN)cc2)NC1=O [SEQ ID NO. 283] ({CH2CO}-[Nle][Phe(4-CH2NH2)]S[Trp(7-aza)][NMeE]N[4Pal][Trp(7-Cl)][αMeS]Y(Carboxymethyl)Y[Sar][αMeW]C-NH2; thioether N-14) | 1.45 | > 1000 | 
